What was measured:
Format in all cases: cell-based
Settings in all cases: 24 hours of compound treatment
IKZF1 = molecular target: T1, IKZF1 (Homo sapiens, UniProt Q13422+Q96SW2); assay: Western-blot assay of substrate protein degradation in hPBMCs, IKZF1
T1 construct: endogenous in cells; host or cells: hPBMCs (Milecell Biotechnologies)

IKZF3 = molecular target: T2, IKZF3 (Homo sapiens, UniProt Q96SW2+Q9UKT9); assay: Western-blot assay of substrate protein degradation in hPBMCs, IKZF3
T2 construct: endogenous in cells; host or cells: hPBMCs (Milecell Biotechnologies)
T2 sequence (Q9UKT9 whole entry): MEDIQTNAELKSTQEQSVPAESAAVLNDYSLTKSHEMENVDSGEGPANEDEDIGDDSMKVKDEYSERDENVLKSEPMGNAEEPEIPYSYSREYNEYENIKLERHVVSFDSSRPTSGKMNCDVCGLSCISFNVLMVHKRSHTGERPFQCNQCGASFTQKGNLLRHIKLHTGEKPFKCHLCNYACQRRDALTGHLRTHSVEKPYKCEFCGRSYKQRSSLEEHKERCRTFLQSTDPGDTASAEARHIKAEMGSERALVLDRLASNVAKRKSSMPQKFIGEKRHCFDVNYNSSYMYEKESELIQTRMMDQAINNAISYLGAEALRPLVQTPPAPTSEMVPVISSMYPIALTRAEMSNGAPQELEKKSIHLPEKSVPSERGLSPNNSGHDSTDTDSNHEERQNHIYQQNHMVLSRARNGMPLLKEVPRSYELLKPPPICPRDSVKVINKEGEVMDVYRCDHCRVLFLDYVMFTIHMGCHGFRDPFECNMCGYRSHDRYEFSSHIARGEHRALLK
T2 sequence (Q96SW2 whole entry): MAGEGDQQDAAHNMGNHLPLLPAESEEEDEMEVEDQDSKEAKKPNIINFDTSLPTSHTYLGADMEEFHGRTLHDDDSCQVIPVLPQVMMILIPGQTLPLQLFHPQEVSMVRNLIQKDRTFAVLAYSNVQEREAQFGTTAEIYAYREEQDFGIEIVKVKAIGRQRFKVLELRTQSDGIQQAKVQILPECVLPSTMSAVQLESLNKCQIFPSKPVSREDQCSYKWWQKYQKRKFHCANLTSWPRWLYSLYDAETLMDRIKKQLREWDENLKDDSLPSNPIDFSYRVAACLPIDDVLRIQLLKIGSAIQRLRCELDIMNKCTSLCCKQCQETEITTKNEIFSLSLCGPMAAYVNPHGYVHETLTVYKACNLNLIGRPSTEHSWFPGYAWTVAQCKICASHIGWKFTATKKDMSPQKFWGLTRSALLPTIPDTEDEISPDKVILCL
T2 sequence (Q16531 whole entry partner): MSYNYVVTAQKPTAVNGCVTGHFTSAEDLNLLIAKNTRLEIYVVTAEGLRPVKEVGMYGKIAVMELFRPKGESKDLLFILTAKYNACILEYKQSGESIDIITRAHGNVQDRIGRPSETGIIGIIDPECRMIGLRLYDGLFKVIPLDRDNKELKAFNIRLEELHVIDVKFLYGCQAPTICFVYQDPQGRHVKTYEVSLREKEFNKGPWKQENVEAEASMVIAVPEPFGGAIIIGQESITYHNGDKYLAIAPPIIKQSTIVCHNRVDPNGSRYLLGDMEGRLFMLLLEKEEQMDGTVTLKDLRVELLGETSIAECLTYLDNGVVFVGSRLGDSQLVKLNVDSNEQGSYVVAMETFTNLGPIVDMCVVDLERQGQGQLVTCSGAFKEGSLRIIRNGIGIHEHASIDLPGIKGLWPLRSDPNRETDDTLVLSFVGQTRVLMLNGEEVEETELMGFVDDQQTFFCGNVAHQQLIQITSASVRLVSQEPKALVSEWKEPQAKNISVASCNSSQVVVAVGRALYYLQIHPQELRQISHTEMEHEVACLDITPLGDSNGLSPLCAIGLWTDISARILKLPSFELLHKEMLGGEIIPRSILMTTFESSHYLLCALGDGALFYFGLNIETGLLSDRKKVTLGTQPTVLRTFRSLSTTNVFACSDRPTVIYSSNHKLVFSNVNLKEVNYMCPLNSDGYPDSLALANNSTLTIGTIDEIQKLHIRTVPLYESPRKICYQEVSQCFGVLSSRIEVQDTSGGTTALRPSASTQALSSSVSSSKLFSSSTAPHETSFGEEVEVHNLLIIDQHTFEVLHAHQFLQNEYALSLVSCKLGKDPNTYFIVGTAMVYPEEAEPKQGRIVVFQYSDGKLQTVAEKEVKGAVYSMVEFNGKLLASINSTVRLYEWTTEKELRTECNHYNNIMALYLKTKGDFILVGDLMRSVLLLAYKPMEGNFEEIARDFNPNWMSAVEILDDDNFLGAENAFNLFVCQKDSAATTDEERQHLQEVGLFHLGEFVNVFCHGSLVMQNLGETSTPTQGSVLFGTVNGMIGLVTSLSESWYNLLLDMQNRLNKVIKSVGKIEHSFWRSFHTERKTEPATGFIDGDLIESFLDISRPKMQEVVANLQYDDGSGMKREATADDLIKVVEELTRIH

WEE1 = molecular target: T3, WEE1 (Homo sapiens, UniProt P30291+Q96SW2); assay: Western-blot assay of substrate protein degradation in hPBMCs, WEE1
T3 construct: endogenous in cells; host or cells: hPBMCs (Milecell Biotechnologies)
T3 sequence (P30291 whole entry): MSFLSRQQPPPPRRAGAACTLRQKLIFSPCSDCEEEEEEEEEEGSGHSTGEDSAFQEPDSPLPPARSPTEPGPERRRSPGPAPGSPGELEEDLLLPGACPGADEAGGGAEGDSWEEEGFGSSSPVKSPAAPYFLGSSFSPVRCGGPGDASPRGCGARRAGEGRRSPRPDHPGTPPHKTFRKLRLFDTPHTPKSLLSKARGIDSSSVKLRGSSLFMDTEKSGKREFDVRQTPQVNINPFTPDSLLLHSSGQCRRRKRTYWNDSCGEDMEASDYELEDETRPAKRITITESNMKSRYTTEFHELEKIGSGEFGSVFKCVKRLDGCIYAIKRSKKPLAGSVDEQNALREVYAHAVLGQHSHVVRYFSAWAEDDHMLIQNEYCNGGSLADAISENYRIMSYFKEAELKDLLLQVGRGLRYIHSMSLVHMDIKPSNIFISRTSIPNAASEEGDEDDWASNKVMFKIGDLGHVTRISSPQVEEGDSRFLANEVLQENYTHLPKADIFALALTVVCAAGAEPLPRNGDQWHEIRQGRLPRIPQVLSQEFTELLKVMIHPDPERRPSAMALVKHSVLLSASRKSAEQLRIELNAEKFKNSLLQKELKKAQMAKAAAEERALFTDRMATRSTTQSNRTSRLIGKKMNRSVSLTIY
T3 sequence (Q96SW2 whole entry): as the sequence (Q96SW2 whole entry) above
T3 sequence (Q16531 whole entry partner): as the sequence (Q16531 whole entry partner) above

GSPT1 = molecular target: T4, GSPT1 (Homo sapiens, UniProt P15170+Q96SW2); assay: Western-blot assay of substrate protein degradation in hPBMCs, GSPT1
T4 construct: endogenous in cells; host or cells: hPBMCs (Milecell Biotechnologies)

CK1α = molecular target: T5, CK1α (Homo sapiens, UniProt P48729+Q96SW2); assay: Western-blot assay of substrate protein degradation in hPBMCs, CK1α
T5 construct: endogenous in cells; host or cells: hPBMCs (Milecell Biotechnologies)
T5 sequence (P48729 whole entry): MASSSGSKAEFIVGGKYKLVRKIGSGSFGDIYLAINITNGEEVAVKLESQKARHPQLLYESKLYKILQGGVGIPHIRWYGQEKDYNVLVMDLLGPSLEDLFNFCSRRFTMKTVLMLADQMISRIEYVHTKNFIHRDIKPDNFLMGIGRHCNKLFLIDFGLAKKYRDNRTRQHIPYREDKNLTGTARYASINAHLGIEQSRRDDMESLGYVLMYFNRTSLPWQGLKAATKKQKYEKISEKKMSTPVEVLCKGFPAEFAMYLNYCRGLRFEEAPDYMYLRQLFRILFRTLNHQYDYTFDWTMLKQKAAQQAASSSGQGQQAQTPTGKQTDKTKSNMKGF
T5 sequence (Q96SW2 whole entry): as the sequence (Q96SW2 whole entry) above
T5 sequence (Q16531 whole entry partner): as the sequence (Q16531 whole entry partner) above

IKZF2 = molecular target: T6, IKZF2 (Homo sapiens, UniProt Q96SW2+Q9UKS7); assay: Western-blot assay of substrate protein degradation in hPBMCs, IKZF2
T6 construct: endogenous in cells; host or cells: hPBMCs (Milecell Biotechnologies)
T6 sequence (Q9UKS7 whole entry): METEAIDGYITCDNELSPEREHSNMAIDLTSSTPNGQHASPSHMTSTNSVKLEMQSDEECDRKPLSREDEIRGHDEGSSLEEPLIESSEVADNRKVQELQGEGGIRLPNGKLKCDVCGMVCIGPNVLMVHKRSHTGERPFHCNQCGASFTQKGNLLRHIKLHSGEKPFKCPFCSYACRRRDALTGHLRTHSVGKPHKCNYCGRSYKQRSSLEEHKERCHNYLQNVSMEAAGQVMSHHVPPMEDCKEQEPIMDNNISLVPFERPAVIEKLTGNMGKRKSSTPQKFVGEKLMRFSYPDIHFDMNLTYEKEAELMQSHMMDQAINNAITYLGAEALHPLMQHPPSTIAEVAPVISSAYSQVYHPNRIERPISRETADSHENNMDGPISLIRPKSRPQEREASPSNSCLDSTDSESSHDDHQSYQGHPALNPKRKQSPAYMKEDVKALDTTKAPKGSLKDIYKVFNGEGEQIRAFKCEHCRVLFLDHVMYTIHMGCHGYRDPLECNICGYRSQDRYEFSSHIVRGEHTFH
T6 sequence (Q96SW2 whole entry): as the sequence (Q96SW2 whole entry) above
T6 sequence (Q16531 whole entry partner): as the sequence (Q16531 whole entry partner) above

[1] = 50 nM and 500 nM tested (concentration behind the class not stated)
[2] = compounds tested at 50 nM and 500 nM (concentration of the table not stated)

T1 sequence (Q13422 whole entry): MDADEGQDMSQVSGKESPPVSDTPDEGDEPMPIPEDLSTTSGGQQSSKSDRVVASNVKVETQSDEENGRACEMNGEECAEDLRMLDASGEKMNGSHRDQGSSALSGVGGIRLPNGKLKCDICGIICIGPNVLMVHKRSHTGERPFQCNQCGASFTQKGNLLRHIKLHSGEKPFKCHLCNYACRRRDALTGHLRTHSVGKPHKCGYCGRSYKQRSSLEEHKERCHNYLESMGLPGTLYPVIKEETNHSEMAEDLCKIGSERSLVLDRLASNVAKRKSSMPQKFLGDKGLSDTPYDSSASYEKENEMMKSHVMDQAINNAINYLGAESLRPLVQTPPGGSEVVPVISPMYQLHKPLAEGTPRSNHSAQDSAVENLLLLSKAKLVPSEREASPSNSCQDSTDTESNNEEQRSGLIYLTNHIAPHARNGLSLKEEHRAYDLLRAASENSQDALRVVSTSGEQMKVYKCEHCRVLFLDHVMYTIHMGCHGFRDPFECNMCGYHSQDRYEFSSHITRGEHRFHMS
T1 sequence (Q96SW2 whole entry): as the sequence (Q96SW2 whole entry) above
T1 sequence (Q16531 whole entry partner): as the sequence (Q16531 whole entry partner) above

## O=C1CCC(N2C(=O)c3ccc(CN4CCC(c5cccs5)CC4)cc3C2=O)C(=O)N1 (stereo not drawn) [GT-06224, 2-(2,6-dioxopiperidin-3-yl)-5-((4-(thiophen-2-yl)piperidin-1-yl)methyl)isoindoline-1,3-dione]
IKZF1; [1]
  IKZF 1 substrate protein remaining %: A (0% ≤ substrate protein remaining % ≤ 80%)
IKZF3; [1]
  IKZF3 substrate protein remaining %: A (0% ≤ substrate protein remaining % ≤ 80%)
WEE1; [1]
  Weel substrate protein remaining %: A (0% ≤ substrate protein remaining % ≤ 80%)
GSPT1; [1]
  GSPT1 substrate protein remaining %: A (0% ≤ substrate protein remaining % ≤ 80%)
CK1α; [1]
  CK1a substrate protein remaining %: A (0% ≤ substrate protein remaining % ≤ 80%)
IKZF2; [1]
  IKZF2 substrate protein remaining %: B (80%< substrate protein remaining %≤ 100%)

## O=C1CCC(N2C(=O)c3ccc(CN4CCN(c5ncnc6sccc56)CC4)cc3C2=O)C(=O)N1 (stereo not drawn) [GT-06303, 2-(2,6-dioxopiperidin-3-yl)-5-((4-(thieno[2,3-d]pyrimidin-4-yl)piperazin-1-yl)methyl)isoindoline-1,3-dione]
IKZF1; [1]
  IKZF 1 substrate protein remaining %: A (0% ≤ substrate protein remaining % ≤ 80%)
IKZF3; [1]
  IKZF3 substrate protein remaining %: B (80%< substrate protein remaining %≤ 100%)
WEE1; [1]
  Weel substrate protein remaining %: B (80%< substrate protein remaining %≤ 100%)
GSPT1; [1]
  GSPT1 substrate protein remaining %: B (80%< substrate protein remaining %≤ 100%)
CK1α; [1]
  CK1a substrate protein remaining %: B (80%< substrate protein remaining %≤ 100%)
IKZF2; [1]
  IKZF2 substrate protein remaining %: B (80%< substrate protein remaining %≤ 100%)

## O=C1CCC(N2C(=O)c3ccc(CN4CCN(c5ccc(Cl)c(Cl)c5)CC4)cc3C2=O)C(=O)N1 (stereo not drawn) [GT-06298, 5-((4-(3,4-dichlorophenyl)piperazin-1-yl)methyl)-2-(2,6-dioxopiperidin-3-yl)isoindoline-1,3-dione]
IKZF1; [1]
  IKZF 1 substrate protein remaining %: B (80%< substrate protein remaining %≤ 100%)
IKZF3; [1]
  IKZF3 substrate protein remaining %: B (80%< substrate protein remaining %≤ 100%)
WEE1; [1]
  Weel substrate protein remaining %: B (80%< substrate protein remaining %≤ 100%)
GSPT1; [1]
  GSPT1 substrate protein remaining %: A (0% ≤ substrate protein remaining % ≤ 80%)
CK1α; [1]
  CK1a substrate protein remaining %: B (80%< substrate protein remaining %≤ 100%)
IKZF2; [1]
  IKZF2 substrate protein remaining %: B (80%< substrate protein remaining %≤ 100%)

## Cc1ccsc1N1CCN(Cc2ccc3c(c2)C(=O)N(C2CCC(=O)NC2=O)C3=O)CC1 (stereo not drawn) [GT-06214, 2-(2,6-dioxopiperidin-3-yl)-5-((4-(3-methylthiophen-2-yl)piperazin-1-yl)methyl)isoindoline-1,3-dione]
IKZF1; [1]
  IKZF 1 substrate protein remaining %: B (80%< substrate protein remaining %≤ 100%)
IKZF3; [1]
  IKZF3 substrate protein remaining %: B (80%< substrate protein remaining %≤ 100%)
WEE1; [1]
  Weel substrate protein remaining %: B (80%< substrate protein remaining %≤ 100%)
GSPT1; [1]
  GSPT1 substrate protein remaining %: A (0% ≤ substrate protein remaining % ≤ 80%)
CK1α; [1]
  CK1a substrate protein remaining %: B (80%< substrate protein remaining %≤ 100%)
IKZF2; [1]
  IKZF2 substrate protein remaining %: A (0% ≤ substrate protein remaining % ≤ 80%)

## O=C1CCC(N2C(=O)c3ccc(CN4CCN(c5cccc(F)c5F)CC4)cc3C2=O)C(=O)N1 (stereo not drawn) [GT-06300, 5-((4-(2,3-difluorophenyl)piperazin-1-yl)methyl)-2-(2,6-dioxopiperidin-3-yl)isoindoline-1,3-dione]
IKZF1; [1]
  IKZF 1 substrate protein remaining %: B (80%< substrate protein remaining %≤ 100%)
IKZF3; [1]
  IKZF3 substrate protein remaining %: B (80%< substrate protein remaining %≤ 100%)
WEE1; [1]
  Weel substrate protein remaining %: B (80%< substrate protein remaining %≤ 100%)
GSPT1; [1]
  GSPT1 substrate protein remaining %: A (0% ≤ substrate protein remaining % ≤ 80%)
CK1α; [1]
  CK1a substrate protein remaining %: B (80%< substrate protein remaining %≤ 100%)
IKZF2; [1]
  IKZF2 substrate protein remaining %: B (80%< substrate protein remaining %≤ 100%)

## O=C1CCC(N2C(=O)c3ccc(CN4CCC(c5ccsc5)CC4)cc3C2=O)C(=O)N1 (stereo not drawn) [GT-06281, 2-(2,6-dioxopiperidin-3-yl)-5-((4-(thiophen-3-yl)piperidin-1-yl)methyl)isoindoline-1,3-dione]
IKZF1; [1]
  IKZF 1 substrate protein remaining %: B (80%< substrate protein remaining %≤ 100%)
IKZF3; [1]
  IKZF3 substrate protein remaining %: B (80%< substrate protein remaining %≤ 100%)
WEE1; [1]
  Weel substrate protein remaining %: B (80%< substrate protein remaining %≤ 100%)
GSPT1; [1]
  GSPT1 substrate protein remaining %: A (0% ≤ substrate protein remaining % ≤ 80%)
CK1α; [1]
  CK1a substrate protein remaining %: B (80%< substrate protein remaining %≤ 100%)
IKZF2; [1]
  IKZF2 substrate protein remaining %: B (80%< substrate protein remaining %≤ 100%)

## O=C1CCC(N2C(=O)c3ccc(CN4CCC(c5cccc(F)c5Cl)CC4)cc3C2=O)C(=O)N1 (stereo not drawn) [GT-06360, 5-((4-(2-chloro-3-fluorophenyl)piperidin-1-yl)methyl)-2-(2,6-dioxopiperidin-3-yl)isoindoline-1,3-dione]
IKZF1; [1]
  IKZF 1 substrate protein remaining %: A (0% ≤ substrate protein remaining % ≤ 80%)
IKZF3; [1]
  IKZF3 substrate protein remaining %: B (80%< substrate protein remaining %≤ 100%)
WEE1; [1]
  Weel substrate protein remaining %: A (0% ≤ substrate protein remaining % ≤ 80%)
GSPT1; [1]
  GSPT1 substrate protein remaining %: A (0% ≤ substrate protein remaining % ≤ 80%)
CK1α; [1]
  CK1a substrate protein remaining %: B (80%< substrate protein remaining %≤ 100%)
IKZF2; [1]
  IKZF2 substrate protein remaining %: A (0% ≤ substrate protein remaining % ≤ 80%)

## Cc1sc2ncnc(N3CCN(Cc4ccc5c(c4)C(=O)N(C4CCC(=O)NC4=O)C5=O)CC3)c2c1C (stereo not drawn) [GT-06307, 5-((4-(5,6-dimethylthieno[2,3-d]pyrimidin-4-yl)piperazin-1-yl)methyl)-2-(2,6-dioxopiperidin-3-yl)isoindoline-1,3-dione]
IKZF1; [1]
  IKZF 1 substrate protein remaining %: A (0% ≤ substrate protein remaining % ≤ 80%)
IKZF3; [1]
  IKZF3 substrate protein remaining %: B (80%< substrate protein remaining %≤ 100%)
WEE1; [1]
  Weel substrate protein remaining %: B (80%< substrate protein remaining %≤ 100%)
GSPT1; [1]
  GSPT1 substrate protein remaining %: A (0% ≤ substrate protein remaining % ≤ 80%)
CK1α; [1]
  CK1a substrate protein remaining %: A (0% ≤ substrate protein remaining % ≤ 80%)
IKZF2; [1]
  IKZF2 substrate protein remaining %: A (0% ≤ substrate protein remaining % ≤ 80%)

## Cc1cscc1C1CCN(Cc2ccc3c(c2)C(=O)N(C2CCC(=O)NC2=O)C3=O)CC1 (stereo not drawn) [GT-06282, 2-(2,6-dioxopiperidin-3-yl)-5-((4-(4-methylthiophen-3-yl)piperidin-1-yl)methyl)isoindoline-1,3-dione]
IKZF1; [1]
  IKZF 1 substrate protein remaining %: B (80%< substrate protein remaining %≤ 100%)
IKZF3; [1]
  IKZF3 substrate protein remaining %: B (80%< substrate protein remaining %≤ 100%)
WEE1; [1]
  Weel substrate protein remaining %: B (80%< substrate protein remaining %≤ 100%)
GSPT1; [1]
  GSPT1 substrate protein remaining %: A (0% ≤ substrate protein remaining % ≤ 80%)
CK1α; [1]
  CK1a substrate protein remaining %: B (80%< substrate protein remaining %≤ 100%)
IKZF2; [1]
  IKZF2 substrate protein remaining %: B (80%< substrate protein remaining %≤ 100%)

## O=C1CCC(N2C(=O)c3ccc(CN4CC=C(c5cccs5)CC4)cc3C2=O)C(=O)N1 (stereo not drawn) [GT-06219, 2-(2,6-dioxopiperidin-3-yl)-5-((4-(thiophen-2-yl)-3,6-dihydropyridin-1(2H)-yl)methyl)isoindoline-1,3-dione]
IKZF1; [1]
  IKZF 1 substrate protein remaining %: B (80%< substrate protein remaining %≤ 100%)
IKZF3; [1]
  IKZF3 substrate protein remaining %: A (0% ≤ substrate protein remaining % ≤ 80%)
WEE1; [1]
  Weel substrate protein remaining %: A (0% ≤ substrate protein remaining % ≤ 80%)
GSPT1; [1]
  GSPT1 substrate protein remaining %: A (0% ≤ substrate protein remaining % ≤ 80%)
CK1α; [1]
  CK1a substrate protein remaining %: A (0% ≤ substrate protein remaining % ≤ 80%)
IKZF2; [1]
  IKZF2 substrate protein remaining %: B (80%< substrate protein remaining %≤ 100%)

## O=C1CCC(N2C(=O)c3ccc(CN4CCN(c5ccc(F)cc5F)CC4)cc3C2=O)C(=O)N1 (stereo not drawn) [GT-06361, 5-((4-(2,4-difluorophenyl)piperazin-1-yl)methyl)-2-(2,6-dioxopiperidin-3-yl)isoindoline-1,3-dione]
IKZF1; [1]
  IKZF 1 substrate protein remaining %: B (80%< substrate protein remaining %≤ 100%)
IKZF3; [1]
  IKZF3 substrate protein remaining %: B (80%< substrate protein remaining %≤ 100%)
WEE1; [1]
  Weel substrate protein remaining %: B (80%< substrate protein remaining %≤ 100%)
GSPT1; [1]
  GSPT1 substrate protein remaining %: A (0% ≤ substrate protein remaining % ≤ 80%)
CK1α; [1]
  CK1a substrate protein remaining %: B (80%< substrate protein remaining %≤ 100%)
IKZF2; [1]
  IKZF2 substrate protein remaining %: B (80%< substrate protein remaining %≤ 100%)

## O=C1CCC(N2C(=O)c3ccc(CN4CCN(c5ccc(F)cn5)CC4)cc3C2=O)C(=O)N1 (stereo not drawn) [GT-06528, 2-(2,6-dioxopiperidin-3-yl)-5-((4-(5-fluoropyridin-2-yl)piperazin-1-yl)methyl)isoindoline-1,3-dione]
IKZF1; [1]
  IKZF 1 substrate protein remaining %: B (80%< substrate protein remaining %≤ 100%)
IKZF3; [1]
  IKZF3 substrate protein remaining %: A (0% ≤ substrate protein remaining % ≤ 80%)
WEE1; [1]
  Weel substrate protein remaining %: A (0% ≤ substrate protein remaining % ≤ 80%)
GSPT1; [1]
  GSPT1 substrate protein remaining %: A (0% ≤ substrate protein remaining % ≤ 80%)
CK1α; [1]
  CK1a substrate protein remaining %: B (80%< substrate protein remaining %≤ 100%)
IKZF2; [1]
  IKZF2 substrate protein remaining %: A (0% ≤ substrate protein remaining % ≤ 80%)

## O=C1CCC(N2Cc3cc(CN4CCn5c(nnc5C(F)(F)F)C4)ccc3C2=O)C(=O)N1 (stereo not drawn) [GT-04199, 3-(1-oxo-5-((3-(trifluoromethyl)-5,6-dihydro-[1,2,4]triazolo[4,3-a]pyrazin-7(8H)-yl)methyl)isoindolin-2-yl)piperidine-2,6-dione]
IKZF1; [2]
  IKZF 1 substrate protein remaining %: B (80%< substrate protein remaining %≤ 100%)
IKZF3; [2]
  IKZF3 substrate protein remaining %: A (0% ≤ substrate protein remaining % ≤ 80%)
WEE1; [2]
  Weel substrate protein remaining %: A (0% ≤ substrate protein remaining % ≤ 80%)
GSPT1; [2]
  GSPT1 substrate protein remaining %: B (80%< substrate protein remaining %≤ 100%)
CK1α; [2]
  CK1a substrate protein remaining %: B (80%< substrate protein remaining %≤ 100%)
IKZF2; [2]
  IKZF2 substrate protein remaining %: A (0% ≤ substrate protein remaining % ≤ 80%)
